{
  "source": "paper PMC9582434",
  "about": "“Ryanodine receptor-active non-dioxin-like polychlorinated biphenyls cause neurobehavioral deficits in larval zebrafish” (Frontiers in Toxicology, 2022)",
  "key": {"[1]": {"test_system": "RYR paralogs found in zebrafish skeletal muscle", "test": "[3H]ryanodine ligand binding assay, adult zebrafish tail muscle microsomes", "procedure": "Sensitization of the zebrafish RYR by ortho-PCBs was measured using [^3H]ryanodine ([^3H]Ry) ligand binding assays as previously described ([Fritsch and Pessah, 2013]). Briefly, crude microsomal protein preparations were created from the tail (post dorsal fin) muscle (primarily white skeletal muscle) of six adult zebrafish (∼1 year old) that was homogenized in a buffer containing 320 mM sucrose, 5 mM HEPES, 1 mM PMSF, 10 mM NaF, 2 mM β-Glycerol, 5 mM Na4P2O7, 0.5 mM Na3VO4 and 2 μg/L leupeptin (pH 7.2). The homogenate was centrifuged at 5,000 × g (4°C) for 15 min. The pellet was re-homogenized in 5 ml homogenization buffer and centrifuged at 5,000 × g. Supernatants were combined for ultracentrifugation at 100,000 g (4°C for 1 h). The resultant pellet was re-suspended in a buffer of 320 mM sucrose and 5 mM HEPES (Sigma-Aldrich, St. Louis, MO, United States) at pH 7.2. Protein concentrations were determined in triplicate using a BCA Assay (Fisher Scientific, Waltham, MA, United States). [^3H]Ry ligand binding assays were conducted with 40 μg/ml of the crude protein homogenate in the presence of DMSO (0.5%) or 0.1–50 μM of individual PCB congeners in 0.5% DMSO. Tests were run using 5 nM [^3H]Ry (Perkin Elmer Waltham, MA, United States), 250 mM KCl, 20 mM HEPES, 15 mM NaCl, and 50 μM CaCl2 (pH 7.1) and incubated for 16 h at 25°C. Non-specific binding was determined with the addition of 10 µM ryanodine (Tocris Bioscience, Bristol, United Kingdom) and 200 μM EGTA (Sigma-Aldrich, St. Louis, MO, United States). Assays were terminated by rapid filtration through Whatman GF/B filter paper (Brandel, Gaithersburg, MD, United States) and washed with ice-cold buffer containing 140 mM KCl, 10 mM HEPES, and 0.1 mM CaCl2, pH 7.4. Bound radioligand was measured by liquid scintillation counting (Beckman Coulter, Indianapolis, IN, United States). PCB-induced [^3H]Ry binding was assessed in two different protein preparations, and each assay was run in triplicate. Individual PCB concentration-response curves were determined using non-linear regression (GraphPad Prism 6.0, GraphPad Software Inc., San Diego, CA, United States)."}, "larval zebrafish": {"test_system": "larval zebrafish", "test": "Larval photomotor behavior test (light/dark locomotor test)", "format": "in vivo", "procedure": "At 4 hpf, embryos were treated with 50 µl of 41 mg/ml protease from Streptomyces griseus (P5147, Sigma-Aldrich, St. Louis, MO, United States) in 25 ml of FW for a maximum of 6 min to remove the chorion ([Truong et al., 2011]). At 5 hpf, embryos were placed in individual wells of 96-well plates filled with 100 µl of EM. At 6 hpf, embryos were exposed to a 2× concentration of the selected PCB congeners or controls that were diluted in 100 μl EM to produce a 1× concentration in a total of 200 µl solution. […] After exposure, plates were covered with Parafilm M (Bemis NA, Neenah, WI, United States) to reduce evaporation and placed in an incubator at 28.5°C with 14 h light (∼300 lux)/10 h dark cycles. Final DMSO concentrations were 0.2% (vol/vol) for all exposures. Fish were statically exposed until 5 dpf.\nLarval locomotor tests were performed at 3, 4, and 5 dpf. Vehicle and PCB-exposed larvae in 96-well plates were placed in a DanioVision behavior system (Noldus Information Technology, Leesburg, VA, United States) and subjected to a 35 min light/dark locomotor test. System and plate temperature were maintained at 28.5 ± 0.5°C using a temperature control unit from Noldus. The testing paradigm consisted of a 10 min light period (∼1,900 lux) to allow for acclimation (5 min) and to record baseline swimming (5 min). This was followed by a 5 min dark period (∼0 lux) to stimulate increased swimming behavior and a 5 min light period (∼1,900 lux) to stimulate freezing behavior. The last 15 min consisted of a dark period (∼0 lux) to observe increased swimming behavior and acclimation to the dark conditions.\nThe distance traveled binned per minute by each larva during the 35-min observation test period was recorded via continuous tracing using a DanioVision system camera with an infrared filter to allow recording in both light and dark conditions. Movement was tracked using EthoVisionXT software (Noldus Information Technology) and exported to Excel and Prism 6.0 (GraphPad Software) for analysis and visualization. Dead and/or malformed larvae (as noted by observation under dissecting scope) were excluded from the behavior analysis.\nThe trapezoidal rule was used to compute the area under the curve (AUC) for each fish per day per lighting condition. The first 5 min of the 35-min observation period was removed to account for initial acclimation. Therefore, data were analyzed for the following time epochs: Light 1 (L1) = 6–10 min, Dark 1 (D1) = 11–15 min, Light 2 (L2) = 16–20 min, and Dark 2 (D2) = 21–35 min. Mixed effects regression models, including zebrafish-specific random effects, were used to assess differences between groups. DMSO groups from each spawn date (≥3 independent spawns) and plate were combined in the analysis. Separate models were fit for each congener. New variables were defined to capture differences in the AUC between Light 1 and Dark 1, Dark 1 and Light 2, and Light 2 and Dark 2, to measure change in distance traveled when transitioning from light to dark or dark to light. Contrasts were specified to compare these transitions and the AUC during each of the lighting conditions between the exposed groups and the DMSO control group. […] Due to some zeroes in the AUC, all values were shifted by 0.1 prior to taking the natural logarithm. Concentration (0.1, 0.3, 1, 3, 10 µM and DMSO), day (3, 4, 5 dpf), and the transition variables were all of interest in the models, including their interactions. Akaike information criterion was used for model selection and Wald tests for comparing groups. All analyses were conducted using SAS version 9.4.\nThe neurotoxic potential of the congeners tested in this study were ranked based on the three endpoints measured in this study: RYR binding, behavior, and body burden. Congeners were ranked relative to each other for each individual endpoint from 1 (highest) to 6 (lowest), and then the three scores for each congener averaged to obtain an overall relative ranking for each congener. […]"}},
  "data": [
    {"smiles": "Clc1cc(Cl)c(-c2ccc(Cl)c(Cl)c2Cl)cc1Cl", "note": "[PCB 138]", "values": [
      {"measurement": "EC2X", "setting": "[1]; concentration causing two-fold induction in ligand binding vs DMSO control", "value": 4.18},
      {"measurement": "Max. response SEM (%)", "setting": "[1]; maximum [3H]Ry binding response compared to DMSO control, mean ± SEM", "value": "388.20 ± 74.93", "unit": "%"},
      {"measurement": "EC50", "setting": "[1]; relative EC50, concentration causing half-maximum response, PCB 0.1–50 μM", "value": 9.6, "unit": "µM"},
      {"measurement": "RYR activity (in words)", "setting": "[1]; zebrafish muscle", "value": "moderate"},
      {"measurement": "increase of L1-D1 transition compared to the control group", "setting": "larval zebrafish; 0.3 µM, 4 dpf", "value": 0.821},
      {"measurement": "distance moved relative to vehicle control", "setting": "larval zebrafish; 1 µM, 3 dpf, D1", "value": "moved more"},
      {"measurement": "increase of L1-D1 transition compared to the control group", "setting": "larval zebrafish; 1 µM, 4 dpf", "value": 0.68},
      {"measurement": "distance moved relative to vehicle control", "setting": "larval zebrafish; 3 µM, 3 dpf, D1", "value": "moved more"},
      {"measurement": "distance moved relative to vehicle control", "setting": "larval zebrafish; 3 µM, 3 dpf, D2", "value": "moved more"},
      {"measurement": "decrease of L1-D1 transition compared to controls", "setting": "larval zebrafish; 3 µM, 5 dpf", "value": 0.7},
      {"measurement": "distance moved relative to vehicle control", "setting": "larval zebrafish; 10 µM, 3 dpf, D1", "value": "moved more"},
      {"measurement": "distance moved relative to vehicle control", "setting": "larval zebrafish; 10 µM, 3 dpf, D2", "value": "moved more"},
      {"measurement": "decrease of L1-D1 transition compared to the control group", "setting": "larval zebrafish; 10 µM, 4 dpf, not quite statistically significant (p = 0.06)", "value": 0.6},
      {"measurement": "distance moved relative to vehicle control", "setting": "larval zebrafish; 10 µM, 5 dpf, D2", "value": "moved less"},
      {"measurement": "Behavior score (total change from control)", "setting": "larval zebrafish; sum of absolute [1 − (AUC value/DMSO)] over all concentrations, epochs and 3, 4, 5 dpf", "value": 29.32}
    ]}
  ]
}
